Data reported in US8802815B2, “Peptides and uses thereof to modulate IGF-1 synthesis and IGF-1 receptor expression” (Universite Pierre et Marie Curie (Paris 6), priority 2009, dated 2014).

Legend:
Type in all cases: cell-based, mouse
[1] = system: chondrocytes; assay: [3H] thymidine incorporation in DNA (cell proliferation), primary chondrocytes culture
Protocol: To assess peptide ability to induce cell proliferation, inventors carried out a test showing [H^3] thymidine incorporation during DNA duplication according to Kurz et al., 1997 method. This test was adapted to the model used by the inventors, namely a primary mouse embryonic chondrocytes culture.
Chondrocytes, obtained by dissociation of mouse mandible condyles (MCDC) were incubated in a culture medium permitting chondrogenesis, in particular, 5×10^5 cells/ml were incubated with 1 μCi [^3H]-thymidine/ml of medium (Amersham, code TRA120, stock 1 mCi/ml, specific activity 5 Ci/mmol) for 3 hours at 37° C. in DMEM medium (Dulbecco's modified Eagle's medium) fetal calf serum (FCS) free but supplemented with 100 μg/ml of ascorbic acid, 1 mmol/L of calcium chloride, 10 mmol/L of 3-glycerophosphate, and antibiotics. Same medium, in which 5 μl of [^3H]-thymidine are added for 2 minutes, is used as negative control. Supernatant was removed and cells were washed twice with saline solution buffered at pH 7.0 (PBS), the cells are washed twice (for 5 minutes) with methanol. Then the cells are washed three times with a 10% trichloroacetic acid (TCA) cold solution. After washing cells twice with DDW, cells are incorporated in 200 μl of 0.3M NaOH for 15 minutes. The cells are then transferred in 3 ml of a neutralized scintillation fluid with 200 μl of 0.3M HCl. […]

[2] = system: IGF-1; assay: IGF-1 synthesis by immunohistochemistry, primary chondrocytes culture (FIG. 4); settings: IHC
Excerpt: Moreover (FIG. 4), P70 inhibits IGF-1 synthesis at 10^−6M (30% inhibition at a high concentration of peptide) and stimulates IGF-1 synthesis at 10^−7M (90% increase at a low concentration of peptide).

[3] = system: IGF-1 receptor; assay: IGF-1R expression by immunohistochemistry, 5-day primary chondrocytes culture (FIG. 3); settings: IHC, 5-day culture
[4] = system: chondrocytes; assay: Chondrogenesis: cartilage nodule formation in chondrocytes culture (FIG. 6); settings: 10^-7M peptide; 7th day of incubation; vs untreated chondrocytes
Protocol: In FIG. 6, the peptide P70 effect at a concentration of 10^−7M is compared with untreated chondrocytes (control). At 7th day of incubation, in the presence of the peptide, accelerated formation of nodules of cartilage is clearly observed. The cartilage nodules development (volume/culture) is 85% accelerated.

[5] = system: IGF-1R; assay: IGF-1R expression in chondrocytes in culture, optical density (FIG. 2)
Excerpt: (§1) Inventors investigated P70 effect on IGF-1 synthesis and on expression of its receptor (IGF-1R) by means of chondrocytes in culture.

[6] = system: type II collagen; assay: Type II collagen production by immunochemistry, chondrocytes culture (FIG. 5); settings: 10^-7M peptide; 5th day of culture
Protocol: The mouse embryos chondrocytes obtained according to same protocol as described above were cultured and incubated at a 10^−7M peptide P70 concentration. […] In fact, an increase of 150% is observed relative to the untreated control.

[7] = system: IGF-1; assay: IGF-1 production in chondrocytes in culture (FIG. 2)
Excerpt: as §1

## Acetyl-SNFGSRKFSYKAKFWTDVTTSELG-amide (Ac-SNFGSRKFSYKAKFWTDVTTSELG-NH2) [P70, 24-mer peptide of the invention, N-terminal acetyl, C-terminal amide]
[1]; 10^-6M peptide, 3 hours
  stimulatory effect on the proliferation of chondrocytes, greater than the untreated control: 53%
[1]; 10^-7M peptide
  stimulation effect on the proliferation of chondrocytes: not observed
[2]; 10^-6M peptide
  inhibition of IGF-1 synthesis: 30%
[2]; 10^-7M peptide
  increase of IGF-1 synthesis: 90%
[3]; 10^-6 M peptide
  inhibition of IGF-1 receptor expression: 36.8%
[3]; 10^-7 M peptide
  increase of IGF-1 receptor expression: 23.8%
[4]
  acceleration of cartilage nodules development (volume/culture): 85%
[5]; 10^-6M peptide
  effect on the production of IGF-1 receptor: virtually inhibits
[5]; 10^-7 M peptide
  effect on expression of IGF-1 receptor (IGF-1R): important stimulation effect
[6]
  increase of type II collagen production relative to the untreated control: 150%
[7]; 10^-6M peptide
  effect on the production of IGF-1: virtually inhibits
[7]; 10^-7 M peptide
  effect on IGF-1 production: important stimulation effect
